# According to patent US20260325481A1, “THERAPY SELECTION AND TREATMENT OF NEURODEGENERATIVE DISORDERS” (Anavex Life Sciences Corp., priority 2022, published 2026):
# Tested on: patients with Parkinson's Disease with Dementia (PDD)
# Assay: ANAVEX 2-73-PDD-001 Phase 2 study (randomized, double blind, placebo-controlled) in Parkinson's Disease with Dementia
# Assay type: in vivo, human
# Experimental: In order to assess the safety, tolerability and efficacy of ANAVEX® 2-73 (blarcamesine) oral capsules in treating cognitive impairment in patients with Parkinson's Disease with Dementia (PDD), a phase 2 study, coded “ANAVEX® 2-73-PDD-001 study” (FIG. 1), was conducted. The study was multi-center, randomized, double blind, placebo-controlled, parallel group with 3-arm. The study included a 2-week Screening/Baseline Observation Period and a 14-week Treatment Period (including a 2 week Titration Period), and a 2-week Safety Follow-Up Period. A total of 132 patients were enrolled in the study and were randomly assigned to three testing arms (FIG. 1). In ANAVEX2-73 High Dose arm, 44 patients were given oral capsules of ANAVEX2-73 once daily in an escalating dose of 10 mg, 20 mg, 30 mg and 50 mg. In ANAVEX2-73 Mid Dose arm, 44 patients were given oral capsules of ANAVEX2-73 once daily in an escalating dose of 10 mg, 20 mg, and 30 mg. In placebo group, 44 patients were given placebo capsules. Outcome measures included Cognitive Drug Research (CDR) Computerized Assessment System on Continuity of Attention; Change from Baseline to End of Treatment in Continuity of Attention as measured by Cognitive Drug Research (CDR) Computerized Assessment System Continuity of Attention; Number of participants with treatment-related adverse events as assessed by CTCAE v4.0 [Time Frame: 14 weeks]; Assessment of the safety and tolerability of ANAVEX2-73 compared to placebo; MDS-UPDRS Part III Total Score (Motor Scores); Change from baseline to End of Treatment as measured by MDS-UPDRS Part III Total Score (Motor Scores); SDS-CL-25 [Time Frame: 14 weeks]; Incidence of sleep disorders symptoms (SDS-CL-25); and DNA/RNA Sequencing. Since MDS-UPDRS is indicative of the motor activity for Parkinson Disease (PD), the trial can also identify the effects of ANAVEX® 2-73 on PD patients.
# The trial enrolled 132 adults, ages 50-85, with PDD, and was successfully concluded in September 2020. Participants, recruited at multiple sites in Spain and Australia, were randomly assigned to one of two doses groups (with an escalating ANAVEX 2-73 dose up to 30 or 50 mg oral capsules) or to a placebo, once daily for 14 weeks (see FIG. 1 for details). The trial's main goals were to assess the therapy's safety and changes in patients' cognitive function, measured using the cognitive drug research computerized assessment system—a test that looks at multiple cognitive skills, such as choice reaction time (choosing between similar objects), vigilance, and episodic memory (remembering new personal experiences or shared information). Secondary goals included changes in patients' motor abilities—assessed with the Movement Disorders Society Unified Parkinson's Disease Rating Scale (MDS-UPDRS) Part III—and sleep quality. […] This sleep disorder is associated with greater cognitive impairment and a higher risk of dementia. […] After 14 weeks, the MDS-UPDRS total score dropped by 10.98 points (indicating an easing in disease severity) in the high-dose group and rose by 3.53 points in the placebo group. This represented an adjusted mean improvement of 14.51 points—surpassing the established, clinically meaningful 7.1 point-cut-off—and a relative improvement of 18.9% over 14 weeks. These findings highlight ANAVEX 2-73's ability to not only slow, but also reverse, symptoms that progress in Parkinson's disease, potentially fulfilling an urgent unmet medical need, Anavex stated in its release. […] After completing the PDD-001 trial, patients had the option of being treated with ANAVEX 2-73 for nearly one year in its extension study, called ANAVEX 2-73-PDD-EP-001 (NCT04575259).
# Randomized, placebo-controlled clinical trial in 132 patients with Parkinson's disease with dementia (PDD) included prespecified biomarkers of response as well as Whole Exome Sequencing DNA data and full RNA exome expression data collection. […]
compound,measurement,setting,value
"CN(C)CC1CCOC1(c1ccccc1)c1ccccc1.Cl (centres unmarked) [ANAVEX2-73, tetrahydro-N,N-dimethyl-2,2-diphenyl-3-furanmethanamine hydrochloride]","Dementia assessment, Quality of Episodic Memory","14-week trial, oral","dose-dependent, statistically significant improvement"
same,REM sleep behavior disorder,"14 weeks, previously reported results, confirmed",lessened REM sleep behavior disorder
same,Cognitive skills,"CDR computerized assessment system, 14 weeks, previously reported results, confirmed",significantly improved several cognitive skills
same,MDS-UPDRS Part II response,MS4A4A Wild Type rs6591561 cohort (excluding rs6591561 homozygous mutation carriers),strongest response
same,Response depending on patients' MS4A4A (rs6591561) carrier status,PDD-001 study,Different ANAVEX® 2-73 response
same,Motor and non-motor Parkinson's symptoms (MDS-UPDRS total score),"high dose (50 mg) once daily oral, 14 weeks",statistically significant and clinically meaningful reductions
same,"Parkinson's assessment, MDS-UPDRS Total score","high oral dose once daily, 14-week trial",significant improvement
same,Safety,"oral capsules once daily up to 30 or 50 mg, 14 weeks, previously reported results",generally safe
